This passage reports EC50 results from US8629157B2, “Pyrrolidine compounds which modulate the CB2 receptor” (Boehringer Ingelheim International GmbH, priority 2009, dated 2014).

The structures appear in SMILES notation.

The target of one assay is human CB2R (Homo sapiens, UniProt P34972). Put plainly: CB2R mediated modulation of cAMP synthesis. Type of assay: cell-based.
Chain of human CB2R (P34972 whole entry): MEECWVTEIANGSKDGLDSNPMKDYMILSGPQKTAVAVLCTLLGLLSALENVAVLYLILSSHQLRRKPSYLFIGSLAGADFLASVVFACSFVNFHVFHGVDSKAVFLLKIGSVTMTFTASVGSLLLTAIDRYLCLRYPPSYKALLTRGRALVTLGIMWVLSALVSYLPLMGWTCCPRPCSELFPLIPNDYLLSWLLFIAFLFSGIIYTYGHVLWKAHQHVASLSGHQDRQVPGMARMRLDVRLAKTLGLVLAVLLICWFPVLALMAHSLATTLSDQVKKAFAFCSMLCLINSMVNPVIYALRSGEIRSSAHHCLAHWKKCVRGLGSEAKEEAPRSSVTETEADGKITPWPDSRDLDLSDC
Conditions: not given
An outline of the steps: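 CHO cells expressing human CB2R were treated 30 min at 37° C. with compounds in buffer containing 1 mM IBMX, 0.25% BSA and 10 uM forskolin; cAMP in lysates was measured by DiscoverX-XS kit.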
By EC50 is commonly meant the concentration that produces a half-maximal response. `O=C(Nc1nc(C(F)(F)F)co1)[C@@H]1CCCN1c1ccc(Cl)cc1` [(S)-1-(4-Chloro-phenyl)-pyrrolidine-2-carboxylic acid (4-trifluoromethyl-oxazol-2-yl)-amide] registered an EC50 of 5.79 nM.

As to `CCCN1CCC[C@H]1C(=O)Nc1nc(C(C)(C)C)cs1` [Example 187, (S)-1-Propyl-pyrrolidine-2-carboxylic acid (4-tert-butyl-thiazol-2-yl)-amide], the concentration for a half-maximal effect (EC50) came out at 159 nM. On the same count and under the same terms, the figure for `CC1CC(NC(=O)[C@@H]2C[C@@H](O)CN2CC2CCOCC2)CC(C)(C)C1` (stereo partly drawn) [(2S,4R)-4-Hydroxy-1-(tetrahydro-pyran-4-ylmethyl)-pyrrolidine-2-carboxylic acid (3,3,5-trimethyl-cyclohexyl)-amide] is 219 nM; for `CC(C)(CO)c1cc(NC(=O)[C@@H]2CCCN2C2CCOCC2)on1` [(S)-1-(tetrahydro-pyran-4-yl)-pyrrolidine-2-carboxylic acid [3-(2-hydroxy-1,1-dimethyl-ethyl)-isoxazol-5-yl]-amide] it is 50 nM; for `CC(C)(C)c1nnc(NC(=O)[C@@H]2CCCN2C2CCCC2)s1` [(S)-1-Cyclopentyl-pyrrolidine-2-carboxylic acid (5-tert-butyl-1,3,4-thiadiazol-2-yl)-amide] it is 165 nM.

The molecule `CC(C)(C)c1nnc(NC(=O)[C@@H]2CCCN2C2CCCCC2)s1` [(S)-1-Cyclohexyl-pyrrolidine-2-carboxylic acid (5-tert-butyl-1,3,4-thiadiazol-2-yl)-amide] showed a 50% effective concentration (EC50) of 30 nM. Same read-out and setting: the figure for `CC(C)(C)c1cc(NC(=O)[C@@H]2CCC(=O)N2c2ccc(Cl)s2)on1` [(S)-1-(5-Chloro-thiophen-2-yl)-5-oxo-pyrrolidine-2-carboxylic acid (3-tert-butyl-isoxazol-5-yl)-amide] is 67.5 nM.

`O=C(Nc1ccc(C(F)(F)F)cn1)[C@@H]1CCCN1c1ccc(C(F)(F)F)cc1` [(S)-1-(4-Trifluoromethyl-phenyl)-pyrrolidine-2-carboxylic acid (5-trifluoromethyl-pyridin-2-yl)-amide] gave an EC50 of 15.5 nM. Still for that read-out and setting: for `C[C@@]1(C(=O)Nc2ccc(C(F)(F)F)cn2)CCCN1c1ccc(C(F)(F)F)cn1` [(S)-2-Methyl-1-(5-trifluoromethyl-pyridin-2-yl)-pyrrolidine-2-carboxylic acid (5-trifluoromethyl-pyridin-2-yl)-amide] the value was 0.634 nM; for `Cc1ccc(N2C(=O)CC[C@H]2C(=O)Nc2cc(C(C)(C)C)no2)cc1Cl` [(S)-l-(3-Chloro-4-methyl-phenyl)-5-oxo-pyrrolidine-2-carboxylic acid (3-tert-butyl-isoxazol-5-yl)-amide], 77.4 nM; for `CCc1ccnc(NC(=O)[C@@H]2CCCN2c2ccc(Cl)cc2)c1` [(S)-1-(4-Chloro-phenyl)-pyrrolidine-2-carboxylic acid (4-ethyl-pyridin-2-yl)-amide], 1.2 nM. Regarding `Cc1cc(N2C(=O)CC[C@H]2C(=O)Nc2cc(C(C)(C)C)no2)ccc1F` [(S)-1-(4-Fluoro-3-methyl-phenyl)-5-oxo-pyrrolidine-2-carboxylic acid (3-tert-butyl-isoxazol-5-yl)-amide], a half-maximal response (EC50) required 91.2 nM. The same measure, in the same setting: the figure for `CC(C)c1ccc(N2C(=O)CC[C@H]2C(=O)Nc2cc(C(C)(C)C)no2)cc1` [(S)-1-(4-Isopropyl-phenyl)-5-oxo-pyrrolidine-2-carboxylic acid (3-tert-butyl-isoxazol-5-yl)-amide] is 159 nM; for `O=C(Nc1nnc(-c2ccccc2)s1)[C@@H]1CCCN1c1ccc(Cl)cc1` [(S)-1-(4-Chloro-phenyl)-pyrrolidine-2-carboxylic acid (5-phenyl-1,3,4-thiadiazol-2-yl)-amide] it is 11.2 nM. Consider `CC(C)(C)c1cc(NC(=O)[C@@H]2CCC(=O)N2c2ccc(F)c(Cl)c2)no1` [(S)-1-(3-Chloro-4-fluoro-phenyl)-5-oxo-pyrrolidine-2-carboxylic acid (5-tert-butyl-isoxazol-3-yl)-amide], for which the EC50 is 59.3 nM. `Cc1cc(N2C(=O)CC[C@H]2C(=O)Nc2cc(C(C)(C)C)on2)ccc1F` [(S)-1-(4-Fluoro-3-methyl-phenyl)-5-oxo-pyrrolidine-2-carboxylic acid (5-tert-butyl-isoxazol-3-yl)-amide] registered an EC50 of 362 nM. Molecule `CC(C)(C)c1cc(NC(=O)[C@@H]2C[C@@H](O)CN2Cc2ccc(F)c(F)c2)no1` [(2S,4R)-1-(3,4-Difluoro-benzyl)-4-hydroxy-pyrrolidine-2-carboxylic acid (5-tert-butyl-isoxazol-3-yl)-amide] displayed an EC50 of 12.3 nM. Still for that read-out and setting: for `CC(C)(C)c1nnc(NC(=O)[C@@H]2CCCN2C(=O)N2CCS(=O)(=O)CC2)s1` [(S)-1-(1,1-Dioxo-1l^6-thiomorpholine-4-carbonyl)-pyrrolidine-2-carboxylic acid (5-tert-butyl-1,3,4-thiadiazol-2-yl)-amide] the value was 436 nM; for `CC(C)(C)c1cc(NC(=O)[C@]2(C)CCCN2c2ccc(Cl)cc2)no1` [(S)-1-(4-Chloro-phenyl)-2-methyl-pyrrolidine-2-carboxylic acid (5-tert-butyl-isoxazol-3-yl)-amide], 0.21 nM. Regarding `CC(C)(C)c1cc(NC(=O)[C@@H]2CCCN2c2ccc(C(F)(F)F)cn2)on1` [(S)-1-(5-Trifluoromethyl-pyridin-2-yl)-pyrrolidine-2-carboxylic acid (3-tert-butyl-isoxazol-5-yl)-amide], the midpoint of the response, the EC50, lay at 0.023 nM. `CCC(C)c1cc(NC(=O)[C@@H]2CCC(=O)N2c2ccc(C(F)(F)F)cc2)on1` (stereo partly drawn) [(S)-5-Oxo-1-(4-trifluoromethyl-phenyl)-pyrrolidine-2-carboxylic acid (3-sec-butyl-isoxazol-5-yl)-amide] registered an EC50 of 40.9 nM. Still for that read-out and setting: for `CCc1ccc(N2C(=O)CC[C@H]2C(=O)Nc2cc(C(C)(C)C)no2)cc1` [(S)-1-(4-Ethyl-phenyl)-5-oxo-pyrrolidine-2-carboxylic acid (3-tert-butyl-isoxazol-5-yl)-amide] the value was 173 nM; for `Cc1ccc(NC(=O)[C@@H]2CCC(=O)N2c2ccc(Cl)cc2)nc1` [(S)-1-(4-Chloro-phenyl)-5-oxo-pyrrolidine-2-carboxylic acid (5-methyl-pyridin-2-yl)-amide], 485 nM.

Still in this assay, the particulars now being: CHO cells expressing human CB2R; inhibition of forskolin-stimulated cAMP synthesis; mean; read-out: CB2 CAMP @ EC50 nM (mean).
For `O=C(Nc1nc2cc(Cl)ccc2s1)[C@@H]1CCCN1CC1CCOCC1` [(S)-1-(Tetrahydro-pyran-4-ylmethyl)-pyrrolidine-2-carboxylic acid (5-chloro-benzothiazol-2-yl)-amide], the 50% effective concentration (EC50) was determined as 3.14 nM. The same measure, in the same setting: the figure for `O=C(Nc1nc2c(s1)CCCC2)[C@@H]1CCCN1c1ccc(Cl)cc1` [(S)-1-(4-Chloro-phenyl)-pyrrolidine-2-carboxylic acid (4,5,6,7-tetrahydro-benzothiazol-2-yl)-amide] is 12.7 nM.
